Patent US11447485B2, “Class of bifunctional compounds with quanternary ammonium salt structure” (Beijing Showby Pharmaceutical Co., Ltd., priority 2016, dated 2022)
Where two headings read alike, the source gives them in different places.

Key:
[1] = tested on: heart rate of Beagle dogs; assay: Heart rate changes after iv administration in Beagle dogs; type: in vivo, Beagle dog
Protocol: Beagle dogs were randomly divided into two groups, half male and half female, and were intravenously injected (iv) with 7.5% ethanol solution of compounds of the invention and control compound. Each compound was set up in two dosage groups of 0.01 mg/kg and 0.10 mg/kg.

[2] = Liver microsome metabolic stability in vitro (human); settings: Human liver microsomes
Protocol: (§1) The area ratio of the 0 min sample was taken as 100%, and the remaining percentage of the compound after incubation at different times was obtained at each time point by comparison with the sample. With the natural logarithm of this percentage on the ordinate and time on the abscissa, a scatter plot was drawn to simulate a straight line with a negative slope of k. The parameters were calculated according to the formula.
(§2) Liver weight indicates the liver weight (g) per kilogram of body weight, and P450 indicates the amount (mg) of P450 enzyme per gram of liver.

[3] = Liver microsome metabolic stability in vitro (SD rat); settings: SD rat liver microsomes
Protocol: as §1, §2

[4] = Liver microsome metabolic stability in vitro (Beagle dog); settings: Beagle dog liver microsomes
Protocol: as §1, §2

[5] = tested on: tracheal smooth muscle of guinea pig; assay: Relaxation of CCh-induced constriction of isolated guinea pig tracheal smooth muscle (Experimental Example 1); settings: for Onset time (min) ± SD / Time for eliminating inhibition effect (min): CCh 3 × 10^−6 mol/L; for EC50: Cavia porcellus, read-out: EC50 (μM) ± SD
Protocol: The upper end was connected with a muscle tension transducer, and the specimen was given a resting tension of 1.0 g. Muscle tension changes were recorded, nutrient solution was changed every 20 min, and the experiment was started after 60 min of equilibrium.
Administration Method: After the trachea flake were stabilized, 3×10^−6 mol/L CCh was added to the bath. […] Diastolic condition of the trachea flake was observed. If no response occurred (below the threshold concentration), the next dosage was continued to be added in the order. If any response occurred, the next dosage was added until its diastolic platform was reached. The above operation was repeated until the shrink curve reached the minimum. Finally, 10^−6 mol/L isoproterenol was added to establish maximum relaxation, and the curve was recorded.
Statistical Methods: Statistics was performed using the Sigma Stat statistical software package, the data was analyzed by using the variance analysis. Student-Newman-Keuls (SNK) test was used in comparison among multiple sample averages number. The statistical test level was α=0.05 (bilateral).

[6] = biological target: T1, human recombinant β2 adrenoceptor (Homo sapiens, UniProt P07550); assay: cell-based; type: cell-based; settings: EC50 (β1)/EC50 (β2)
T1 construct: expressed in transfected cells
T1 sequence (P07550 whole entry): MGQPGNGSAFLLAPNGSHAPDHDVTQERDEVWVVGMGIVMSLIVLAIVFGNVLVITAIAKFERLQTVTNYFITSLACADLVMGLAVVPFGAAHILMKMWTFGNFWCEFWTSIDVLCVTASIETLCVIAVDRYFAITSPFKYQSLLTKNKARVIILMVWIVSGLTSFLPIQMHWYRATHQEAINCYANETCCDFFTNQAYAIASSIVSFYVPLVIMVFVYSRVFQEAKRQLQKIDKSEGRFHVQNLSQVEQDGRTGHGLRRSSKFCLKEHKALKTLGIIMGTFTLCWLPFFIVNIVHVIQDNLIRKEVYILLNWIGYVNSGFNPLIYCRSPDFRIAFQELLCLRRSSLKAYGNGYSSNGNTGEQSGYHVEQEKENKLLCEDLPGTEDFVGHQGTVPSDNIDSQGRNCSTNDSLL

[7] = tested on: bronchoconstriction response in the trachea of guinea pig induced by Mch; assay: Bronchoconstriction induced by methacholine (Mch) in anaesthetized guinea pigs, airway dripping (Raw, Cdyn); settings: Mch 10 μg/kg iv; for Cdyn (ml/cmH2O) / Raw (cmH2O/ml/s): 30 min, Mean ± S.E.M
[8] = tested on: β2 receptor in guinea pig tracheal smooth muscle; assay: BA activity: guinea pig isolated trachea pre-treated with histamine; settings: Cavia porcellus; histamine 3×10^−5 mol/L; read-out: BA (EC50)
Protocol: (3) The Antagonism of the Example Compounds on β2 Receptor in Guinea Pig Tracheal Smooth Muscle
(§3) Preparation of an isolated tracheal smooth muscle specimen of a guinea pig: same as Experiment Example 1.
Administration Method: After the trachea flake was stabilized, histamine solution with a final concentration of 3×10^−5 mol/L was added for 10 min, carbachol with a final concentration of 3×10^−6 mol/L was added (observing β receptor antagonism), and administration was started when the pressure value of the trachea flake was increased to a stable platform. The experiments were divided into a blank group, a histamine+blank group, each test sample administration group and a histamine+each test sample administration group. DMSO solution prepared by K—H solution and 50 μl of test sample solution were added to each group of the blank group and each test sample administration group respectively. The histamine+blank group and histamine+each test sample administration group were added with 50 μl histamine solution for 10 min respectively, then added with DMSO solution prepared by K—H solution and 50 μl test sample solution. The test sample administration group was added with the compounds to be tested with final concentrations of 10^−9, 0.3×10^−8, 10^−8, 0.3×10^−7, 10^−7, 0.3×10^−6 and 10^−6 mol/L at cumulative concentration, and the blank group was added with corresponding diluted DMSO solution. The histamine+each test sample administration group was added with histamine for 10 min, and then added with the test compounds with final concentrations of 10^−9, 0.3×10^−8, 10^−8, 0.3×10^−7, 10^−7, 0.3×10^−6 and 10^−6 mol/L at cumulative concentration. After the histamine+blank group was added with histamine for 10 m, corresponding diluted DMSO solution was added. Medlab was used to record the relaxation degree of smooth muscle of the trachea flake. Finally theophylline with a final concentration of 2×10^−4 mol/L was added as 100% relaxation.

[9] = tested on: M receptor of guinea pig tracheal smooth muscle; assay: MA activity: guinea pig isolated trachea, propranolol blocks β receptor, CCh constriction; settings: Cavia porcellus; propranolol 10^−5 mol/L, CCh 3×10^−6 mol/L
Protocol: (2) Blocking Effect of Example Compounds on M Receptor of Guinea Pig Tracheal Smooth Muscle
as §3
Administration method: After trachea flake was stabilized, propranolol hydrochloride solution with a final concentration of 10^−5 mol/L was added to block β receptor for 10 min, carbachol with a final concentration of 3×10^−6 mol/L was added (observing M receptor antagonism of compound after propranolol blocks β receptor), and administration was started when the pressure value of the trachea flake was increased to a stable platform. The experiments were divided into a blank group, a propranolol+blank group, each test sample administration group and a propranolol+each test sample administration group. DMSO solution prepared by K—H solution and 50 μl of test sample solution were added to each group of the blank group and each test sample administration group respectively. The propranolol+blank group and propranolol+each test sample administration group were added with 50 μl propranolol solution for 10 min respectively, and then added with DMSO solution prepared from K—H solution and 50 μl of test sample solution. The test sample administration group was added with the compounds to be tested with final concentrations of 10^−9, 0.3×10^−8, 10^−8, 0.3×10^−7, 10^−7, 0.3×10^−6 and 10^−6 mol/L at cumulative concentration, and the blank group was added with corresponding diluted DMSO solution. The propranolol+each test sample administration group was added with propranolol for 10 min, and then added with the compounds to be tested with final concentrations of 10^−9, 0.3×10^−8, 10^−8, 0.3×10^−7, 10^−7, 0.3×10^−6 and 10^−6 mol/L at cumulative concentration. After the propranolol+blank group was added with propranolol for 10 min, corresponding diluted DMSO solution was added. Medlab was used to record the relaxation degree of tracheal smooth muscle, finally sodium nitroprusside with a final concentration of […] was added as 100% relaxation.

[10] = in vitro, listed as Tiotropium bromine

SMILES | Onset time (min) ± SD ([5]; in vitro) | Time for eliminating inhibition effect (min) ([5]; in vitro) | EC50 [5] [µM] | sel (β1/β2) [6] | Cdyn (ml/cmH2O) ([7]; 0.1 μg/kg airway dripping) | Raw (cmH2O/ml/s) ([7]; 0.1 μg/kg airway dripping) | inhibitory rate of lung dynamic compliance decrease ([7]; 0.1 μg/kg airway dripping) [%] | inhibitory rate on airway resistance increase ([7]; 0.1 μg/kg airway dripping) [%] | Cdyn (ml/cmH2O) ([7]; 0.3 μg/kg airway dripping) | Raw (cmH2O/ml/s) ([7]; 0.3 μg/kg airway dripping) | inhibitory rate of lung dynamic compliance decrease ([7]; 0.3 μg/kg airway dripping) [%] | inhibitory rate on airway resistance increase ([7]; 0.3 μg/kg airway dripping) [%] | Cdyn (ml/cmH2O) ([7]; 1 μg/kg airway dripping) | Raw (cmH2O/ml/s) ([7]; 1 μg/kg airway dripping) | inhibitory rate of lung dynamic compliance decrease ([7]; 1 μg/kg airway dripping) [%] | inhibitory rate on airway resistance increase ([7]; 1 μg/kg airway dripping) [%] | further results
C[N+]1(C)CCC(OC(=O)Nc2cc(CCC(=O)Nc3ccc(CNC[C@H](O)c4ccc(O)c5[nH]c(=O)ccc45)cc3)ccc2-c2ccccc2)CC1.O=C([O-])C(F)(F)F [4-({[5-(2-{[4-({[(2R)-2-hydroxy-2-(8-hydroxy-2-oxo-1,2-dihydroquinolin-5-yl)ethyl]amino}methyl)phenyl]carbamoyl}ethyl)-2-phenylphenyl]carbamoyl}oxy)-1,1-dimethylpiperidin-1-onium trifluoroacetate, reference compound] | – | – | – | – | – | – | – | – | – | – | – | – | – | – | – | – | 0.5-4 h area increase under heart rate curve (%) ([1]; 0.01 mg/kg iv): 35.2%; 0.5-4 h area increase under heart rate curve (%) ([1]; 0.10 mg/kg iv): 109%; liver extraction rate (ERh) [2]: 0.36; liver extraction rate (ERh) [3]: 0.48; liver extraction rate (ERh) [4]: 0.43
O=c1ccc2c([C@@H](O)CNCCCCCCCCCN3CCC(Cn4cnc([C@](O)(c5ccccc5)C5CCCCC5)n4)CC3)ccc(O)c2[nH]1 [5-[(1R)-2-({9-[4-({3-[(R)-cyclohexyl(hydroxy)benzyl)-1H-1,2,4-triazol-1-yl}methyl)piperidin-1-yl]nonyl}amino)-1-hydroxyethyl]-8-hydroxyquinolin-2(1H)-one, reference compound] | – | – | – | – | – | – | – | – | – | – | – | – | – | – | – | – | 0.5-4 h area increase under heart rate curve (%) ([1]; 0.01 mg/kg iv): 69.7%; 0.5-4 h area increase under heart rate curve (%) ([1]; 0.10 mg/kg iv): 152%; liver extraction rate (ERh) [2]: 0.62; liver extraction rate (ERh) [3]: 0.42; liver extraction rate (ERh) [4]: 0.36
COc1cc(C(C)NC[C@H](O)c2ccc(O)c(CO)c2)ccc1OCCC[N+]12CCC(CC1)[C@@H](OC[C@@](O)(c1ccccc1)C1CCCC1)C2.[Br-] (some centres unmarked) [Compound 70] | 7.15 ± 0.31 min | more than 300 min | 0.0183 ± 0.0087 | 379.8 | 0.218 ± 0.013 | 0.702 ± 0.098 | 34.2 | 69.6 | 0.357 ± 0.087 | 0.613 ± 0.107 | 47.8 | 86.5 | 0.345 ± 0.076 | 0.431 ± 0.095 | 49.3 | 92.1 | –
CC(C)(Cc1ccc(OCC[N+]23CCC(CC2)[C@@H](OC[C@@](O)(c2ccccc2)C2CCCCC2)C3)cc1)NC[C@H](O)c1ccc(O)c(NC=O)c1.[Br-] [Compound 99] | 7.35 ± 0.33 min | more than 300 min | 0.0172 ± 0.0072 | 389 | 0.120 ± 0.017 | 0.778 ± 0.073 | 35.0 | 73.5 | 0.158 ± 0.021 | 0.528 ± 0.082 | 48.8 | 86.8 | 0.223 ± 0.035 | 0.421 ± 0.069 | 49.7 | 91.9 | –
COc1cc(NC(=O)CC[N+]23CCC(CC2)[C@@H](OC[C@@](O)(c2ccccc2)C2CCCC2)C3)c(Cl)cc1CNC[C@H](O)c1ccc(O)c(NC=O)c1.[Br-] [Compound 138] | 6.56 ± 0.23 min | more than 300 min | 0.0186 ± 0.0033 | 228.3 | 0.124 ± 0.019 | 0.687 ± 0.079 | 31.0 | 74.8 | 0.158 ± 0.036 | 0.508 ± 0.093 | 48.2 | 88.9 | 0.231 ± 0.022 | 0.418 ± 0.086 | 49.9 | 92.6 | –
OCc1cc(C(O)CNCCCCCCOCCCCc2ccccc2)ccc1O (centres unmarked) [Salmeterol, reference compound] | – | – | – | – | – | – | – | – | – | – | – | – | – | – | – | – | EC50 [8]: 0.0938 ± 0.0068 µM
C[N+]1(C)[C@@H]2C[C@@H](OC(=O)C(O)(c3cccs3)c3cccs3)C[C@H]1[C@@H]1O[C@@H]12 [Tiotropium Bromide, tiotropium bromide, reference compound] | slow | long duration of action | – | – | – | – | – | – | – | – | – | – | – | – | – | – | Onset time (min) ± SD [5, 10]: 30.37 ± 0.50 min; Time for eliminating inhibition effect (min) [5, 10]: more than 300 min; EC50 ([5]; constriction induced by CCh 3 × 10^−6 mol/L, in vitro): 0.0142 ± 0.0022 µM; EC50 [9]: 0.0122 ± 0.0008 µM
